Assay results taken from article PMC3713777 (Bioorganic & medicinal chemistry, 2010).
pKi: −log10 of the molar value.

Legend:
[1] = system: SERT; assay: SERT binding, inhibition of [3H]paroxetine; conditions: ratio of Ki values taken from reference 21
[2] = target: NET; conditions: read-out: NET (Ki); value taken from the literature; cited from earlier work
[3] = target: serotonin transporter (SERT) (Rattus norvegicus, UniProt P31652); assay: [3H]citalopram binding assay; conditions: ratio of Ki values measured in this paper
Chain of serotonin transporter (SERT) (P31652 whole entry): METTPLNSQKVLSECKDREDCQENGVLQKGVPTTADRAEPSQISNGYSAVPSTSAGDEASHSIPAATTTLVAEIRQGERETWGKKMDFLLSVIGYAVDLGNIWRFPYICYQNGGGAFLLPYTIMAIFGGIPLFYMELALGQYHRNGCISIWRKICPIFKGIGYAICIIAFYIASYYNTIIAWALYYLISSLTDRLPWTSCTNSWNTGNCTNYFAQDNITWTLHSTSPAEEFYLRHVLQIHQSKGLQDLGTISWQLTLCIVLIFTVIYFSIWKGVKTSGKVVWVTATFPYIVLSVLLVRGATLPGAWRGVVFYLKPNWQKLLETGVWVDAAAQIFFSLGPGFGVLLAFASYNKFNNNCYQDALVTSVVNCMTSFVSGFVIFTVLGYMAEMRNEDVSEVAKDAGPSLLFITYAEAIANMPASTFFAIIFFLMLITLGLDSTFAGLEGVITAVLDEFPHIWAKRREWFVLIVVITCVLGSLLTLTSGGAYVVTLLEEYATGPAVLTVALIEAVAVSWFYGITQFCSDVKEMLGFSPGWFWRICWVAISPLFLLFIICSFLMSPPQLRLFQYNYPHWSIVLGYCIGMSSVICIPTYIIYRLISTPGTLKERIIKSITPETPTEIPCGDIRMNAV

Compound | NET/SERT [1] | DAT/SERT [3] | further results
CCOC(=O)C1(c2ccc(Cl)c(Cl)c2)CCN(C)CC1.Cl [Compound 2a] | 4,000 | – | pKi [2]: 4.13
CCOC(=O)C1(c2ccc(I)cc2)CCN(C)CC1.Cl [Compound 2c] | 25,000 | – | –
CCOC(=O)C1(c2ccc3ccccc3c2)CCN(C)CC1.Cl [Compound 2d] | 9,900 | – | –
CCOC(=O)C1(c2ccc(I)cc2)CCNCC1.Cl [Compound 4c, Ethyl 4-(4-iodophenyl)-piperidine-4-carboxylate] | – | 1,400 | –
CN1CCC(C(=O)OCc2ccc(Cl)c(Cl)c2)(c2ccc(Cl)c(Cl)c2)CC1.Cl [Compound 8d, 3,4-Dichlorobenzyl 4-(3,4-dichlorophenyl)-1-methylpiperidine-4-carboxylate] | – | 1,200 | –
Cl.O=C(OCc1ccccc1)C1(c2ccc(Cl)c(Cl)c2)CCNCC1 [Compound 12a, Benzyl 4-(3,4-dichlorophenyl) piperidine-4-carboxylate] | – | 100 | –
O=C(O)C(=O)O.O=C(OCc1ccc(Cl)c(Cl)c1)C1(c2ccc(I)cc2)CCNCC1 [Compound 14c, 3,4-Dichlorobenzyl 4-(4-iodophenyl) piperidine-4-carboxylate] | – | – | NET/SERT [3]: 1,000
